Data from publication PMC11574021, “CEP192 localises mitotic Aurora-A activity by priming its interaction with TPX2” (The EMBO Journal, 2024).

Key:
Format in all cases: cell-based, Homo sapiens
[1] = tested on: Aurora-A-pT288 in U251 cells; assay: Western blot densitometry of Aurora-A-pT288, mitotic U251 cells; conditions: mitotic U251 (and RPE1) lysates, siRNA 48 h, in words
Protocol: For western blotting analysis of mitotic lysates, cells were synchronised in mitosis with 10 µM S-Trityl-L-cysteine (STLC, Bio-Techne, 2191-50), an Eg5 inhibitor, for 20 h prior to collecting by mitotic shake-off. For measuring monopolar spindle diameter and counting centriolar foci by immunofluorescence, cells were treated with 10 µM STLC for 1 h and 4 h prior to fixation, respectively.
(§1) As noted in the figures, the following drugs were incubated with cells for 30 min at 37 °C: Aurora-B-i ZM447439 2 µM [10 mM], PLK1-I BI2536 1 µM [10 mM] and Aurora-A-i MLN8237 [5 mM] was used at 250 and 500 nM in U251 and RPE1 cells, respectively. Drugs were resuspended in DMSO to the stock concentrations indicated in square brackets. BI2536 (HY-50698), MLN8237 (HY-10971) and ZM447439 (HY-10128) were all purchased from MedChemExpress. For western blotting, a 20-min pre-treatment with proteasome inhibitor (20 µM MG-132, MerckMillipore, 47490 [20 mM]) was required prior to the addition of DMSO control or kinase inhibitors. This prevented mitotic exit as a consequence of checkpoint override following Aurora-A and Aurora-B inhibitor addition.
Cells were lysed on ice for 30 min in lysis buffer (50 mM tris pH 8.0, 300 mM NaCl, 0.2%(v/v) NP-40, 10%(v/v) glycerol, protease inhibitor cocktail C, phosphatase inhibitor cocktail 3 (Sigma, 1:200 dilution), 100 nM okadaic acid (Enzo, ALX-350-003-C100)). Lysates were then centrifuged at 14,000 × g, 15 min, 4 °C, the supernatants were transferred to a fresh tube, and the pellet was discarded. Protein concentrations were measured by Bradford assay using Protein Assay Dye Reagent Concentrate (Bio-Rad Laboratories, 5000006). NuPage LDS sample buffer, supplemented with NuPAGE sample reducing agent (Invitrogen) were added prior to boiling for 10 min at 90 °C. […]
Densitometric quantification of western blots was also performed in ImageJ. Intensity was measured in a rectangular region of interest (ROI) around each band. […] An adjacent region was also measured to account for background intensity.

LATS2-pS83 in U251 cells = assay: Immunofluorescence, LATS2-pS83 spindle pole signal intensity, U251; conditions: for centrosomal LATS2-pS83 signal: U251, siRNA 48 h or Aurora-A inhibitor 30 min (250 nM), immunofluorescence
Protocol: as §1
(§2) siRNA depletion was carried out by reverse transfection using oligofectamine (Thermo Scientific, 12252011) and lipofectamine RNAiMax (Thermo Scientific, 13778075), according to the manufacturer’s instructions, for U251 and RPE1 cells, respectively. For immunofluorescence, 1 × 10^5 cells were seeded in six-well plates and simultaneously transfected with 60 pmol siRNA duplex and 3 µl transfection reagent diluted in 200 µl Opti-MEM serum-free medium. Growth medium was added to a final volume of 2 ml. For western blotting, 1 × 10^6 cells were seeded in 10 cm dishes and transfected with 300 pmol siRNA duplex and 15 µl transfection reagent diluted in 1000 µl Opti-MEM. Growth medium was added to a final volume of 10 ml. Cells were incubated with siRNA for 48 h prior to fixation or harvesting. As a negative control (siControl) Silencer select negative control No.1 siRNA was transfected as above. For TACC3 depletion, where two siRNA duplexes were used, 40 pmol of each was transfected per well.
For siRNA depletion, 1 × 10^5 cells were seeded in six-well plates and transfected as described above for 48 h prior to fixation. For all other experiments, 2.5 × 10^5 cells were seeded in six-well plates and grown for 24 h before fixation. All cells were grown on 12 mm diameter glass coverslips (VWR, 631–1577). Cells in Fig. EV4A were fixed using 4% (wt/v) paraformaldehyde (PFA) in PBS for 12 min, followed by 10 min quenching in 50 mM NH4Cl in PBS and 5 min of permeabilization with 0.2% (v/v) Triton X-100 in PBS, all at room temperature. For centriole staining in Fig. EV4E, cells were fixed in pre-chilled methanol for 10 min at −20 °C, incubated in PBS for 10 min and then 5 min in 0.5% Triton-X-100, 0.5% Tween, 0.05% SDS in PBS (v/v). To observe centromere and kinetochore staining in Fig. 7C and Appendix Fig. S8A, cells were fixed with PTEMF buffer (20 mM PIPES pH 6.8, 0.2% (v/v) Triton X-100, 10 mM EGTA, 1 mM MgCl2, 4% PFA (wt/v) in PBS) for 12 min at room temperature. […]

[2] = tested on: PPP1CA-pT320, PRC1-pT481 and Histone-H3-pS10 in U251 cells; assay: Western blot, mitotic phosphorylations (PPP1CA-pT320, PRC1-pT481, Histone-H3-pS10), asynchronous U251; conditions: asynchronous U251, siRNA 48 h
Protocol: Cells were lysed on ice for 30 min in lysis buffer (50 mM tris pH 8.0, 300 mM NaCl, 0.2%(v/v) NP-40, 10%(v/v) glycerol, protease inhibitor cocktail C, phosphatase inhibitor cocktail 3 (Sigma, 1:200 dilution), 100 nM okadaic acid (Enzo, ALX-350-003-C100)). Lysates were then centrifuged at 14,000 × g, 15 min, 4 °C, the supernatants were transferred to a fresh tube, and the pellet was discarded. Protein concentrations were measured by Bradford assay using Protein Assay Dye Reagent Concentrate (Bio-Rad Laboratories, 5000006). NuPage LDS sample buffer, supplemented with NuPAGE sample reducing agent (Invitrogen) were added prior to boiling for 10 min at 90 °C. Equal amounts of protein, between 8–20 µg/lane, were loaded into pre-cast 4–12% Bis-Tris gels (Invitrogen, NP0322BOX) and proteins separated in 1x MOPS buffer (Invitrogen) and transferred to nitrocellulose membrane (0.45 µM). Nitrocellulose was then blocked in 5% milk (wt/v) in TBS, 0.1% Tween (v/v) (TBST) for 1 h. Primary and secondary antibodies were diluted in 5% milk, TBST and incubated overnight at 4 °C or for 1 h at room temperature, respectively. Species-specific secondary antibodies conjugated to horseradish peroxidase (HRP) were used (anti-Mouse, Cytiva NA931V; anti-Rabbit, Cytiva NA934; anti-Sheep, Jackson 713-035-003). Membranes were washed for 1 h in TBST, changing the buffer five times, after each antibody incubation.
as §2, with “Growth medium was added to a final volume of 10 ml. Cells were incubated with siRNA for 48 h prior to fixation or harvesting. As a negative control (siControl) Silencer select negative control No.1 siRNA was transfected as above. For TACC3 depletion, where two siRNA duplexes were used, 40 pmol of each was transfected per well.” left out

[3] = tested on: TACC3 in RPE1 p53-/- cells; assay: Immunofluorescence, TACC3 spindle signal intensity, RPE1 p53-/-; conditions: Aurora-A inhibitor 30 min or siRNA 48 h
Protocol: as §1
siRNA depletion was carried out by reverse transfection using oligofectamine (Thermo Scientific, 12252011) and lipofectamine RNAiMax (Thermo Scientific, 13778075), according to the manufacturer’s instructions, for U251 and RPE1 cells, respectively. For immunofluorescence, 1 × 10^5 cells were seeded in six-well plates and simultaneously transfected with 60 pmol siRNA duplex and 3 µl transfection reagent diluted in 200 µl Opti-MEM serum-free medium. Growth medium was added to a final volume of 2 ml. […]

Molecule | activation loop phosphorylation (pT288) of Aurora-A in mitotic cell lysates [1] | centrosomal LATS2-pS83 signal (LATS2-pS83 in U251 cells) | mitotic phosphorylations (PPP1CA-pT320, PRC1-pT481, Histone-H3-pS10) [2] | reduction of p-LATS2 (pS83) intensity (LATS2-pS83 in U251 cells; U251, Aurora-A inhibition 30 min, authors' response to referees) [%] | spindle recruitment of TACC3 [3]
5′-CAAACAACUUGGAAAUCGAtt-3′ [siCEP192] | comparable reduction in pT288 Aurora-A levels to that of TPX2 | reducing LATS2 phosphorylation | increased levels of mitotic phosphorylations |  | 
COc1cc(Nc2ncc3c(n2)-c2ccc(Cl)cc2C(c2c(F)cccc2OC)=NC3)ccc1C(=O)O [Alisertib] |  | obliterated |  | > 80 | abrogated spindle recruitment of TACC3
5′-CGGUAGUGAUAAAAGCUCAtt-3′ [siTPX2] | strongly reduced activation loop phosphorylation (pT288) of Aurora-A | reducing LATS2 phosphorylation | increased levels of mitotic phosphorylations |  | fully prevented both spindle recruitment of TACC3
